According to US20260184807A1, “Methods for Treating Rheumatoid Arthritis Using a Syndecan-1 Inhibitor or Syntenin-1 Inhibitor” (The United States Government as represented by the …, priority 2022, published 2026):

Columns and labels:
[1] = tested on: RA monocyte-differentiated MΦs; test: CD14+CD86+GLUT1+ MΦ frequency by flow cytometry after Syntenin-1; assay type: cell-based, human; settings: Syntenin-1 1000 ng/mL, 24 h; IL5Ra 2 μg/mL, PDZ1i 10 μM, mTORi 1 μM; FIGS. 3H, 3I
Procedure: (B, C) RA MΦs were treated with PBS (ctrl) or Syntenin-1 (1000 ng/mL) for 6 hours and transcription levels of HIF1α (n=10) (FIG. 3B). GLUT1, RAPTOR, HK2, PFK2, PDK1, PKM2 (FIG. 3C) were quantified by qRT-PCR (n=6). […] FIGS. 3H, 3I) after 24 hours impact of treatment was determined on CD14+CD86+ GLUT1+ frequency by flow cytometry (n=4-5). […] Data are presented as mean±SEM; significant differences were determined by Mann-Whitney test, Student's t-test, two-way-ANOVA, or one-way ANOVA. *p<0.05, **p<0.01, ***p<0.001, ****p<0.0001. ANOVA, analysis of variance.
Flow cytometry. Depending on the assay negatively selected human monocytes or human peripheral blood mononuclear cells from Rheumatoid Arthritis patients were stained with anti-CD14, anti-CD86, anti-CD206, anti-CD4 (BioLegend Inc.), or GLUT1 (Novus Biologicals) fluorescently labeled antibodies. Prior to intracellular staining, cells were stimulated with PMA (100 ng/ml) and ionomycin (1.5 μM; both Sigma-Aldrich) in the presence of Brefeldin A (eBioscience, San Diego, USA) for 3-4 h. To exclude dead cells, cells were stained by the ZombieViolet Fixable Viability Kit (BioLegend Inc.). […]
Syntenin-1 stimulation and inhibition. […] Cells were subsequently harvested in TRIzol reagent (Life Technologies) or RIPA buffer (Cell Signaling Technology) for mRNA quantification and western blot analysis; conditioned media was collected for ELISA.

RA ST explants = test: Rheumatoid arthritis explants stimulated with Syntenin-1 (qRT-PCR, ELISA); assay type: cell-based, human; settings: Syntenin-1 5000 ng/ml 6-8 h, mTOR1i 1 μM
Procedure: FIGS. 19A-R show Syntenin1-induced metabolic activity fine-tunes transcription of angiogenic and inflammatory factors in RA ST explants. […] RA STs were stimulated with 1000 ng/ml Syntenin-1 for 6-8 h. Synovial tissues were harvested for transcriptome analysis by qRT-PCR and supernatants were used for protein quantification by ELISA. The transcription level of JAG1 (FIG. 19F), Notch1 (FIG. 19G), VEGF (FIG. 19H), VEGFR1 (FIG. 19I), and RAPTOR (FIG. 19J) was quantified by real-time RT-PCR, n=6-8. RA explants were untreated or stimulated with 5000 ng/ml Syntenin-1 in the presence or absence of SDC1-Ab (1:100), HIF1αi (2 μM), or mTOR1i (IμM) for 6-8 h. The transcription levels of RAPTOR (FIG. 19K, n=3), VEGF (FIG. 19L, n=5), IL-1β (FIG. 19M, n=8), CCL5 (FIG. 19N, n=6), IL-6 (FIG. 19O, n=6), IL-8 (FIG. 19P, n=6), CCL2 (FIG. 19Q, n=8) were evaluated by qRT-PCR or ELISA. […] Data are presented as mean±SEM: significant differences were determined by the Mann-Whitney test, 2way ANOVA, or one-way ANOVA. *p<0.05, **p<0.01, ***p<0.001, ****p<0.0001.
RheumatoidArthritis Explants. RA ST (30 mg) was cut into small pieces to allow proper access to stimuli and were starved o/n in 0% FBS RPMI with or without SDC1-Ab (1:100), mTOR1i (1 μM), and HIF1αi ([…]). […] Tissues were harvested for transcriptome analysis and supernatants were used for protein quantification by ELISA.

SMILES: CO[C@H]1C[C@@H]2CC[C@@H](C)[C@@](O)(O2)C(=O)C(=O)N2CCCC[C@H]2C(=O)O[C@H]([C@H](C)C[C@@H]2CC[C@@H](OCCO)[C@H](OC)C2)CC(=O)[C@H](C)/C=C(\C)[C@@H](O)[C@@H](OC)C(=O)[C@H](C)C[C@H](C)/C=C/C=C/C=C/1C [mTORi, Everolimus]
- Syntenin-1 reconfiguration of naïve cells into RA CD14+CD86+GLUT1+MΦs [1]: exclusively impaired
- CCL2 transcription and TNF secretion (RA ST explants; FIGS. 19Q-R): intercepted
- Syntenin-1-enriched RAPTOR expression (RA ST explants; HIF1αi 2 μM, FIG. 19K): suppressed
